Measurements published in article PMC11530130, “Peripherally restricted PICK1 inhibitor mPD5 ameliorates pain behaviors in murine inflammatory and neuropathic pain models” (JCI Insight, 2024).
Several values for one entry are separate records, joined by “and”; a condition that tells them apart may be missing. Equal values may be shown once.

Key:
[1] = Small-angle x-ray scattering (SAXS), core-shell micelle model; assay type: physicochemical
Description: Peripherally restricted PICK1 inhibitor mPD5 ameliorates pain behaviors in murine inflammatory and neuropathic pain models.
SUPPORTING INFORMATION: Supplemental Table 1+2.
Supplemental Table 1. SAXS data collection and fitting table.
Buffer 50 mM Tris, 125 mM NaCl, pH 7.4
Extinction coefficient 11 000 M-1 cm-1
Molecular weight 1874 g/mol
Peptide concentration 0.19 - 9.37 mg/ml
SAXS data collection details
Instrument P12, Petra III, DESY [1]
Absolute calibration Water
Indirect Fourier Bayersapp.org transformations to obtain
Data rebin WillItRebin [4] […]
nmolec-hydrophilic [Å3] 2012 nmolec-hydrophobic [Å3] 377
Rtotal [Å] 22.6 (corresponding to a hydrophilic shell thickness of Dshell=10.4 Å) […]
[1] C. E. Blanchet, A. Spilotros, F. Schwemmer, M. A. Graewert, A. Kikhney, C. M. Jeffries, D. Franke, D. Mark, R. Zengerle, F.
Cipriani, S. Fiedler, M. Roessle, D. I. Svergun, J Appl Crystallogr 2015, 48, 431.
[2] S. Hansen, Journal of Applied Crystallography 2012, 45, 566.
[3] S. Hansen, Journal of Applied Crystallography 2014, 47, 1469.
[4] WillItFit MC Pedersen 2013. […]
Small Angle X-ray Scattering (SAXS).
Concentration series of mPD5 ranging from […] to 9.37 mg/mL was prepared in buffer containing 50 mM Tris-HCl (pH 7.4) and 125 mM NaCl. Samples were measured at the P12 SAXS Beamline, PetraIII, DESY, Hamburg Germany (2). Initial data processing including radial averaging and conversion of the data into absolute scaled scattering intensity, I(q), as a function of the scattering vector q, where q= 4π sin(θ)/λ (θ = half scattering angle, λ = x-ray wave length) was done using the standard software, procedures and settings at the beamline (2). The processed scattering data was merged, buffer subtracted, and binned using WillItRebin with a binning factor of 1.02. The modelling of the SAXS data was performed using a molecular constrained core-shell model for polydisperse spherical micelles. In brief, it was assumed that the peptide aggregated into polydisperse spherical micelles. Here, the hydrophobic tails form the core, and these are surrounded by the hydrophilic part (the shell) in a spherical micelle. For the modelling, total scattering lengths of 2.26e-10 cm and 2.96e-11 cm were used for the headgroups and tail, respectively. These were calculated by multiplying the […]
electrons) by the scattering length of the electron which is just the classical electron radium of 2.82 fm. For the scattering length density calculations, it was assumed that the molecular volume of the C13 alkyl chain,nmolec-hydrophobic, was 377 Å3 as estimated by Tanfords empirical formula (V = 27.4 + 26.9n!) where nC denotes the number of carbons. i.e. 13 in this case (3).
The hydrophilic headgroup,nmolec-hydrophilic, was as a first estimate assumed to have a mass density corresponding to that of a soluble protein (i.e. 1.35 g/cm3), this yielded a molecular volume of 2078 Å3. This value was then taken as a free parameter in the fits and refined to a molecular volume of ~2010 Å3 corresponding to a mass density of 1.39 g/cm3 and with very little variation over the fits to the different sample concentrations. Excess scattering length densities of the core and shell of the micelle were then calculated in relation to the scattering length density of water (9.4e10 1/cm2). Using this molecular constrained model, the volumes of the core and of the shell were coupled internally through the fitted aggregation number, Nagg and the implicit […]
The relative polydispersity, srelative was described by a Gauss function of Nagg. The Gauss was truncated at ±3s. Through the fits, this value is refined to srelative values of the aggregation number at ~30% for the highest concentrations to up to 50% for the lowest concentrations. Note, however, that this variation in the particle volume translates to about 10%-15% variation of the particle radius. A full overview of the resulting fit-parameters is provided in Supplemental Table S1. As usual a small surface roughness (typical at the order of 2Å) and a small constant background were also […]

[2] = test system: mice, CFA model of inflammatory pain; assay: CFA model, elevated plus maze; assay type: in vivo, mouse
[3] = SAXS pair-distance distribution p(r)
[4] = spherical core-shell model fit, average

## CCCCCCCCCCCCCC(=O)N(CCOCCOCCC(=O)N[C@@H](Cc1c[nH]cn1)C(=O)N[C@@H](Cc1c[nH]c2ccccc12)C(=O)N[C@@H](CC(C)C)C(=O)N[C@@H](CCCCN)C(=O)N[C@H](C(=O)O)C(C)C)CCOCCOCCC(=O)N[C@@H](Cc1c[nH]cn1)C(=O)N[C@@H](Cc1c[nH]c2ccccc12)C(=O)N[C@@H](CC(C)C)C(=O)N[C@@H](CCCCN)C(=O)N[C@H](C(=O)O)C(C)C [mPD5, myristoyl-NPEG4-(HWLKV)2]
[1]; [3]
  Dmax: approximately 50 Å
  radius of gyration (Rg): approximately 30 Å
[1]; five samples of the series 0.19 - 9.37 mg/ml, concentration of each column not given
  Nagg, core shell model fit of single samples: 18.7 and 21.5 and 22.2 and 21.0 and 19.0
[1]; [4]
  hydrophobic core radius (Rcore): 12.2 Å
  shell thickness (Dshell): 10.4 Å
  total radius (Rtotal): 22.6 Å
[2]; 1 hour after s.c. 10 μmol/kg
  time spent in open arms relative to sham, individual mice: 105.738 and 52.6613 and 140.768 and 68.9703 and 55.3027 and 160.227 and 143.859 and 0 and 156.14 and 28.0701 and 63.1578
[2]; s.c. 10 μmol/kg
  time spent in the open arms of the elevated plus maze: no longer significantly different from the naive mice
